How the values were obtained:
Beta-secretase 1 [1] = target: T1, Beta-secretase 1 (Homo sapiens, UniProt P56817); assay: Inhibition of BACE1 (unknown origin) assessed as reduction in amyloidbeta 40 level after 24 hrs by cell-based sandwich ELISA
Rattus norvegicus [2] = assay: In vivo inhibition of BACE1 in Sprague Dawley rat assessed as reduction in amyloidbeta 40 level in CSF at 10 mg/kg, po measured at 4 hrs post dose by sandwich ELISA relative to control; assay type: functional
Beta-secretase 1 [3] = target: T1, Beta-secretase 1; assay: Inhibition of BACE1 (unknown origin) preincubated for 1 hr followed by substrate addition and measured after 1 hr by FRET assay
Rattus norvegicus [4] = assay: In vivo inhibition of BACE1 in Sprague Dawley rat assessed as reduction in amyloidbeta 40 level in brain at 10 mg/kg, po measured at 4 hrs post dose by sandwich ELISA relative to control; assay type: functional
Cathepsin D = Cathepsin D (Homo sapiens, UniProt P07339); assay: Inhibition of recombinant Cathepsin D (unknown origin) expressed in CHO cells preincubated for 1 hr followed by substrate addition and measured after 1 hr by FRET assay; assay type: cell-based
Cathepsin D, sequence (P07339 65-162 limits assumed): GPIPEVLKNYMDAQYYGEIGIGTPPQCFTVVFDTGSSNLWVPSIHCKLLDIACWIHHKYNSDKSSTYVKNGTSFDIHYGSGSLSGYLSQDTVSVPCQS
Cathepsin D, sequence (P07339 169-412 limits assumed): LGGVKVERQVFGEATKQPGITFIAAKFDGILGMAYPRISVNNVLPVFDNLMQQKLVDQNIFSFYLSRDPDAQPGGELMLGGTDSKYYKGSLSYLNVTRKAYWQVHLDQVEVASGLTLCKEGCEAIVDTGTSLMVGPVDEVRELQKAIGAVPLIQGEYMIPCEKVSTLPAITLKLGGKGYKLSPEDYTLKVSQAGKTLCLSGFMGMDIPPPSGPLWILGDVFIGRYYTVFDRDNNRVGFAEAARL

T1 sequence (P56817 whole entry): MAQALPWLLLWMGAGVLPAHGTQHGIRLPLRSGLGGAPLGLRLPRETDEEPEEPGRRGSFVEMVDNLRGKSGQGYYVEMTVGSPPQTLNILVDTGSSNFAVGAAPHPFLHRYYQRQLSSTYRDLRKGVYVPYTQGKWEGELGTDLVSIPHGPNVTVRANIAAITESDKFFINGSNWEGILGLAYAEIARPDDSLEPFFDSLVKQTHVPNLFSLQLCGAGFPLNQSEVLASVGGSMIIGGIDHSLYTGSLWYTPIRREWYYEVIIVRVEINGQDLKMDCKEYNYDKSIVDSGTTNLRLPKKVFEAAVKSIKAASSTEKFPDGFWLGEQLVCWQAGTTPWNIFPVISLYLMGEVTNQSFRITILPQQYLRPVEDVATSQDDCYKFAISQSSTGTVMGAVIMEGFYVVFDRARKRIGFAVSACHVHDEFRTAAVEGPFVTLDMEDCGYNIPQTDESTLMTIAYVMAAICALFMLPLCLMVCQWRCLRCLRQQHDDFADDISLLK

SMILES: Cc1cc(Cl)cnc1C(=O)Nc1ccc(F)c([C@@]2(C)N=C(N)[C@]3(C)CC[C@H]2S3(=O)=O)c1
- IC50 (Beta-secretase 1 [1]): 0.002 µM
- inhibition in vivo at 10 mg/kg (Rattus norvegicus [2]): 76%
- IC50 (Beta-secretase 1 [3]): 0.002 µM
- inhibition in vivo at 10 mg/kg (Rattus norvegicus [4]): 66%
- IC50 (Cathepsin D): 1740 µM

Source: ChEMBL document CHEMBL4342403, “New evolutions in the BACE1 inhibitor field from 2014 to 2018” (Bioorg Med Chem Lett, 2019)
